The values below come from ChEMBL document CHEMBL1142690, “Synthesis of NO-donor bisphosphonates and their in-vitro action on bone resorption” (J Med Chem, 2005).

In test [1] the test system is RAW264.7. Briefly: Effect of compound on osteoclasts formation (compound concentration of 100 nM and RANKL at 50 ng/ml) as observed in clonal RAW264.7 cells. The class given is functional, Mus musculus.
For test [2], the system named is RAW264.7. Briefly: Effect of compound on osteoclasts formation (compound concentration of 100 nM, RANKL at 50 ng/ml and ODQ at 10 uM) as observed in clonal RAW264.7 cells. The class given is functional, Mus musculus.
Test [3] can be described thus: Affinity for hydroxyapatite after 24 hours. The test is classed as functional.
A short description of test [4]: Dissociation constant determined by the pH-metric method. The test is classed as functional.
The next test is filed under the species Rattus norvegicus. Briefly: Effect of compound on osteoclasts formation at concentration of 100 nM in rat femurs. The class given is functional, Femur.
Test [5] concerns Rattus. Briefly: Effect of compound on osteoclast resorption activity at concentration of 100 nM in rat femur. The test is classed as functional.
Test [6] has as its system Rattus. Briefly: Effect of compound on osteoclast resorption activity at concentration of 100 nM in rat femurs. The class given is functional, Femur.

On to `CCCCC(P(=O)(O)O)P(=O)(O)O`, for which the Count in the test on RAW264.7 [1] amounted to 61.2; with RAW264.7 [2], 62.4.

As for `O=[N+]([O-])OCCCCC(P(=O)(O)O)P(=O)(O)O`, the Affinity in test [3] is 65%. For the same compound, in test [4], the pKa1 was < 1.5, the pKa2 came to 3.08, the pKa3 was found to be 6.87 and the pKa4 is 11.5. Also, in the test filed under Rattus norvegicus, the Count stood at 21.88. This compound also displayed a Count in the test with RAW264.7 [1] of 40.2. Moreover, the Count with RAW264.7 [2] is listed as 58.9. The Ratio in the test with Rattus [5] amounted to 1.18.

`O=P(O)(O)C(Sc1ccc(Cl)cc1)P(=O)(O)O` came in with an Affinity in test [3] of 58.4%. For the same compound, in test [4], the pKa1 was < 1.5, the pKa2 amounted to 2.27, the pKa3 worked out at 6.31 and the pKa4 was 10.6.

In turn, `O=[N+]([O-])OCCCCC(O)(P(=O)(O)O)P(=O)(O)O` displayed an Affinity in test [3] of 43.4%. In addition, in test [4], the pKa1 was < 1.5, the pKa2 was determined as 2.85, the pKa3 was 6.83 and the pKa4 stood at 11.3. This compound also came in with a Count with RAW264.7 [1] of 32.8. Further, the Count in the test with RAW264.7 [2] is reported as 59.6.

Regarding `CC(C)C[C@H](NC(=O)[C@H](CCCCN)NC(=O)CNC(=O)[C@H](CC(C)C)NC(=O)[C@@H](NC(=O)[C@@H]1CSSC[C@H](N)C(=O)N[C@@H](CO)C(=O)N[C@@H](CC(N)=O)C(=O)N[C@@H](CC(C)C)C(=O)N[C@@H](CO)C(=O)N[C@@H]([C@@H](C)O)C(=O)N1)C(C)C)C(=O)N[C@@H](CO)C(=O)N[C@@H](CCC(N)=O)C(=O)N[C@@H](CCC(=O)O)C(=O)N[C@@H](CC(C)C)C(=O)N[C@@H](Cc1c[nH]cn1)C(=O)N[C@@H](CCCCN)C(=O)N[C@@H](CC(C)C)C(=O)N[C@@H](CCC(N)=O)C(=O)N[C@H](C(=O)N[C@@H](Cc1ccc(O)cc1)C(=O)N1CCC[C@H]1C(=O)N[C@@H](CCCNC(=N)N)C(=O)N[C@H](C(=O)N[C@@H](CC(N)=O)C(=O)N[C@H](C(=O)NCC(=O)N[C@@H](CO)C(=O)NCC(=O)N[C@H](C(=O)N1CCC[C@H]1C(N)=O)[C@@H](C)O)[C@@H](C)O)[C@@H](C)O)[C@@H](C)O` [CALCITONIN SALMON], the Ratio with Rattus [6] amounted to 0.01. In the test filed under Rattus norvegicus, this compound showed a Count of 27.5.

Take `CCCCCN(C)CCC(O)(P(=O)(O)O)P(=O)(O)O` [IBANDRONIC ACID]: the Count with RAW264.7 [1] worked out at 39.8; in the test on RAW264.7 [2], 34.2.
